Values after ≈ are worked out from the molar mass of the structure shown. Where two headings read alike, the source gives them in different places.
Legend:
[1] = test system: Mycobacterium aurum DSM 43999 (ATCC 23366); assay: Antimycobacterial screening (microdilution broth, resazurin) against M. aurum; format: cell-based; details: Mycolicibacterium aurum, 72 h, read-out: MIC M. aurum
[2] = test system: Mycobacterium smegmatis DSM 43465 (ATCC 607); assay: Antimycobacterial screening (microdilution broth, resazurin) against M. smegmatis; format: cell-based; details: Mycolicibacterium smegmatis, 48 h, read-out: MIC M. smegmatis
[3] = test system: Mycobacterium tuberculosis H37Ra; assay: Antimycobacterial screening (microdilution broth, resazurin) against M. tuberculosis H37Ra; format: cell-based; details: Mycobacterium tuberculosis
[4] = test system: M. tuberculosis H37Ra, M. aurum and M. smegmatis; assay: Antimycobacterial screening, MICs stated over all studied strains; format: cell-based, Mycobacterium; details: read-out: MICs against all studied strains
HepG2 cells = assay: cells; format: cell-based, Human; details: for IC50: Homo sapiens, HepG2, MTT, 24 h incubation
[5] = H37RA, read-out: MIC Mtb H37Ra (µM)
[6] = M. tuberculosis H37Ra, resazurin added after 120 h, read-out: MIC Mtb H37Ra
[7] = range over M. tuberculosis H37Ra, M. aurum, M. smegmatis

| SMILES | MIC [1] [µg/mL] | MIC [2] [µg/mL] | MIC [3, 5] [µM] | MIC [3, 6] [µg/mL] | MIC [4, 7] [µg/mL] | SI (selectivity index) (HepG2 cells) | IC50 (HepG2 cells) [µM] | MIC ([4]; range over the studied strains) [µM] |
| --- | --- | --- | --- | --- | --- | --- | --- | --- |
| COc1ccc2c3c1O[C@H]1C[C@@H](OC(=O)c4ccc(C(C)(C)C)cc4)C=C[C@@]31CCN(C)C2 [1h, 6-O-(4-tert-butylbenzoyl)galanthamine] | 7.81 (≈ 17.4 µM) | 7.81 (≈ 17.4 µM) | 6.9 | 3.12 | 3.12 to 7.81 | 2.43 | 16.8 ± 4.2 | – |
| COc1ccc2c3c1O[C@H]1C[C@@H](OC(=O)c4cccc5ccccc45)C=C[C@@]31CCN(C)C2 [1q, 6-O-(1-naphthoyl)galanthamine] | 7.81 (≈ 17.7 µM) | 7.81 (≈ 17.7 µM) | 13.1 | 6.25 | 6.25 to 7.81 | 3.21 | 42.1 ± 4.1 | – |
| CCOc1cc(OCC)cc(C(=O)O[C@H]2C=C[C@@]34CCN(C)Cc5ccc(OC)c(c53)O[C@H]4C2)c1 [1p, 6-O-(3,5-diethoxybenzoyl)galanthamine] | 7.81 (≈ 16.3 µM) | 15.6 (≈ 32.6 µM) | 7.6 | 3.91 | 3.91 to 15.6 | 2.64 | 20.1 ± 2.1 | 7.6 to 30.2 |
| O=C(O[C@@H]1C=C[C@]23CCN(Cc4cc5c(cc42)OCO5)[C@H]3C1)c1ccc2ccccc2c1 [4b, 3-O-(2-naphthoyl)vittatine] | 3.91 (≈ 9.19 µM) | 7.81 (≈ 18.4 µM) | 8.5 | 3.91 | 3.91 to 7.81 | 2.17 | 18.5 ± 2 | – |
| COc1cc2c(cc1OC)[C@@]13C=C[C@@H](OC(=O)c4cccc5ccccc45)C[C@@H]1N(CC3)C2 [5b, 3-O-(1-naphthoyl)maritidine] | 7.81 (≈ 17.7 µM) | 15.6 (≈ 35.4 µM) | 16.3 | 7.81 | 3.91 to 15.6 | 1.03 | 16.8 ± 7.1 | – |
| COc1cc2c(cc1OC)[C@@]13C=C[C@@H](OC(=O)c4cc(C)cc(C)c4)C[C@@H]1N(CC3)C2 [5a, 3-O-(3,5-dimethylbenzoyl)maritidine] | 15.6 (≈ 37.2 µM) | 15.6 (≈ 37.2 µM) | 8.6 | 3.91 | 3.91 to 15.6 | 2.17 | 18.7 ± 2.7 | – |
| COC1CC2C(=CC1OC(=O)c1cccc3ccccc13)C1CN2Cc2cc3c(cc21)OCO3 (stereo not shown) [3f, 2-O-(1-naphthoyl)-3-O-methylpancracine] | 3.91 (≈ 8.58 µM) | 3.91 (≈ 8.58 µM) | 7.9 | 3.91 | 3.91 | 3.51 | 27.7 ± 4.7 | – |
| O=C(O[C@@H]1C=C[C@]23CCN(Cc4cc5c(cc42)OCO5)[C@H]3C1)c1cccc2ccccc12 [4a, 3-O-(1-naphthoyl)vittatine] | 3.91 (≈ 9.19 µM) | 7.81 (≈ 18.4 µM) | 8.5 | 3.91 | 3.91 to 7.81 | 2.79 | 23.7 ± 2.2 | – |
| CCCCc1ccc(C(=O)O[C@H]2C=C[C@@]34CCN(C)Cc5ccc(OC)c(c53)O[C@H]4C2)cc1 [1i, 6-O-(4-butylbenzoyl)galanthamine] | 1.98 (≈ 4.42 µM) | 7.81 (≈ 17.4 µM) | 3.5 | 1.56 | 1.56 to 7.81 | 4.20 | 14.7 ± 1.6 | – |

From paper PMC8512562, “Semisynthetic Derivatives of Selected Amaryllidaceae Alkaloids as a New Class of Antimycobacterial Agents” (Molecules, 2021)
